# Data published in US20060216238A1, “Compositions and methods for targeting or imaging a tissue in a vertebrate subject” (priority 2005, published 2006).
# Key:
# cowpea plants = test: Infectivity of CPMV following incubation with blood plasma or serum; design: species or system Vigna unguiculata; details: day 7
# Experimental: Infectivity of CPMV following incubation with blood. Whole blood samples were obtained from mice following cardiac puncture either with or without heparin. Samples were incubated at 4° C. overnight and then spun at 15,000 rpm for 10 minutes. Blood plasma or serum were recovered and incubated with CPMV (15 ug) in a one to one (v/v) ratio at 37° C. for 30 minutes while a control CPMV sample was incubated with PBS. Primary leaves from 7-day-old cowpea plants were then bruised with carborundum and inoculated with samples (at a concentration of 3 μg CPMV per leaf, or 300-fold more virus than is required to produce lesions) and observed daily for infection-induced mosaic symptoms.
# [1] = target: folate receptor (FR) on KB and HeLa cells (Homo sapiens, UniProt P15328); details: 4° C., both cell lines
# Chain of folate receptor (FR) on KB and HeLa cells (P15328 25-234): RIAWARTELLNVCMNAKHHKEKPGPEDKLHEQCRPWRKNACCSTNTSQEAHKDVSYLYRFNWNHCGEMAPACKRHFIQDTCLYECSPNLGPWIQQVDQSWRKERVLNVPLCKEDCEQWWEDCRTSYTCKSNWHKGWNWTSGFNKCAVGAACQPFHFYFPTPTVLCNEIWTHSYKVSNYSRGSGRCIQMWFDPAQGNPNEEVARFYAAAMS
substance,measurement,setting,value
cowpea mosaic virus [CPMV],"lesions on primary leaves, plasma-incubated virus",cowpea plants; 30 minutes at 37° C.,6 lesions per cm
same,"lesions on primary leaves, serum-incubated virus",cowpea plants; 30 minutes at 37° C.,less than 1 lesion per cm^2
same,"lesions on primary leaves, control infection (PBS)",cowpea plants,too many lesions to count
same,non-specific binding to the cell surface,[1],significant non-specifig binding
